Assay results as given in the Kinase Knowledgebase extract (Sharma et al. 2016).

These compounds were tested against MAPK14 (human) (UniProt Q16539) (assay: Inhibition of LPS Stimulated TNF Production by U937 Cells). Conditions: not given.
Sequence of MAPK14 (human) (Q16539 whole entry, looked up): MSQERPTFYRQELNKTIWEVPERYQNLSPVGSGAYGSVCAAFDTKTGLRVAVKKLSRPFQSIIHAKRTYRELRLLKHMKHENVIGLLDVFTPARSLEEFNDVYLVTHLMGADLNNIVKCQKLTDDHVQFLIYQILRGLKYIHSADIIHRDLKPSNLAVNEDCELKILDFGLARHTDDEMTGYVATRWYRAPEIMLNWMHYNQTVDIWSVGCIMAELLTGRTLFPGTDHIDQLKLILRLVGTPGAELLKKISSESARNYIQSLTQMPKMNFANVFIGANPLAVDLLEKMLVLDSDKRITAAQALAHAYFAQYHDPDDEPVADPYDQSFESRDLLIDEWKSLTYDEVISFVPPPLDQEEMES
With O=C(N[C@H](Cc1ccccc1)c1[nH]nc(-c2ccc(F)cc2)c1-c1ccncc1)c1ccc(F)cc1 the IC50 was over 1000 nM.
Compound O=C(NCCCc1[nH]nc(-c2ccc(F)cc2)c1-c1ccncc1)NCCCn1ccnc1 has an IC50 of over 1000 nM.
CC(C)C(=O)N[C@H](Cc1ccccc1)c1[nH]nc(-c2ccc(F)cc2)c1-c1ccncc1 gave an IC50 of over 1000 nM.
Work on O=C(N[C@H](Cc1ccccc1)c1[nH]nc(-c2ccc(F)cc2)c1-c1ccncc1)c1cccc(Br)c1 yielded an IC50 of over 1000 nM.
With O=S(=O)(NCc1[nH]nc(-c2ccc(F)cc2)c1-c1ccncc1)c1ccc(F)cc1 the IC50 was 2780 nM.
CC(=O)OC(C)(C)C(=O)NCc1[nH]nc(-c2ccc(F)cc2)c1-c1ccncc1 gave an IC50 of 540 nM.
C=CCOC(=O)N[C@H](C)c1[nH]nc(-c2ccc(F)cc2)c1-c1ccncc1 was tested, and the IC50 was 660 nM.
In the case of CNC(=O)CC[C@H](NC(=O)c1ccc(C)cc1)c1[nH]nc(-c2ccc(F)cc2)c1-c1ccncc1, the IC50 is reported as over 1000 nM.
In the case of CCNC(=O)N1CCC(c2[nH]nc(-c3ccc(F)cc3)c2-c2ccncc2)CC1, the IC50 is reported as 730 nM.
Cc1ccc(-c2n[nH]c(C)c2-c2ccncc2)cc1 showed an IC50 of 274 nM.
For Cc1cccc(C)c1NC(=O)NCc1[nH]nc(-c2ccc(F)cc2)c1-c1ccncc1, the IC50 was 2360 nM.
CC(C)COC(=O)NCc1[nH]nc(-c2ccc(F)cc2)c1-c1ccncc1 showed an IC50 of 720 nM.
With CN(C)c1n[nH]c(-c2ccc(F)cc2)c1-c1ccncc1 the IC50 was 484 nM.
CC(C)(C)c1ccc(S(=O)(=O)NCc2[nH]nc(-c3ccc(F)cc3)c2-c2ccncc2)cc1 showed an IC50 of over 1000 nM.
Compound CCN(CC)CCn1cc(-c2ccnc(F)c2)c(-c2ccc(F)cc2)n1 has an IC50 of 2300 nM.
Compound Fc1ccc(CNc2cc(-c3cnn(CCN4CCOCC4)c3-c3ccc(F)cc3)ccn2)cc1 has an IC50 of 450 nM.
COc1ccc(CC(=O)NCc2[nH]nc(-c3ccc(F)cc3)c2-c2ccncc2)cc1 showed an IC50 of 8240 nM.
C[C@@H](NC(=O)c1ccccc1C(F)(F)F)c1[nH]nc(-c2ccc(F)cc2)c1-c1ccncc1 showed an IC50 of 640 nM.
With O=C(c1ccccc1F)N1CCC(c2[nH]nc(-c3ccc(F)cc3)c2-c2ccncc2)CC1 the IC50 was 410 nM.
With O=C(N[C@H](Cc1ccccc1)c1[nH]nc(-c2ccc(F)cc2)c1-c1ccncc1)c1ccccn1 the IC50 was over 1000 nM.
For CN(C)CCn1cc(-c2ccnc(NCc3ccc(F)cc3)c2)c(-c2ccc(F)cc2)n1, the IC50 was 920 nM.
For O=C(NCc1[nH]nc(-c2ccc(F)cc2)c1-c1ccncc1)c1ccc(F)cc1, the IC50 was 2760 nM.
With CC[C@H](C)CNc1cc(-c2c[nH]nc2-c2ccc(Cl)cc2)ccn1 the IC50 was 33.7 nM.

Same assay, conditions: concentration not given here
In the case of CCNC(=O)N[C@@H](C)c1[nH]nc(-c2ccc(F)cc2)c1-c1ccncc1, the inhibition is reported as 50%.
Work on CC(C)OC(=O)N[C@@H](C)c1[nH]nc(-c2ccc(F)cc2)c1-c1ccncc1 yielded an inhibition of 53%.
With CC(=O)Nc1ccc(S(=O)(=O)N[C@H](C)c2[nH]nc(-c3ccc(F)cc3)c2-c2ccncc2)cc1 the inhibition was 64%.
In the case of C[C@@H](NC(=O)c1cccc(Br)c1)c1[nH]nc(-c2ccc(F)cc2)c1-c1ccncc1, the inhibition is reported as 27%.
O=C(NCc1[nH]nc(-c2ccc(F)cc2)c1-c1ccncc1)c1cccc(OC(F)(F)F)c1 gave an inhibition of 22%.
Compound C[C@H](NC(=O)c1cc(F)cc(C(F)(F)F)c1)c1[nH]nc(-c2ccc(F)cc2)c1-c1ccncc1 has an inhibition of 36%.
With C[C@@H](NC(=O)c1ccc(F)c(F)c1)c1[nH]nc(-c2ccc(F)cc2)c1-c1ccncc1 the inhibition was 52%.
O=C(NCc1[nH]nc(-c2ccc(F)cc2)c1-c1ccncc1)[C@H]1CCCN1C(=O)OCC1c2ccccc2-c2ccccc21 gave an inhibition of 14%.
Work on CCc1ccccc1NC(=O)NCc1[nH]nc(-c2ccc(F)cc2)c1-c1ccncc1 yielded an inhibition of 21%.
C[C@H](NS(=O)(=O)c1ccccc1Br)c1[nH]nc(-c2ccc(F)cc2)c1-c1ccncc1 showed an inhibition of 81%.
With C[C@@H](NC(=O)C1CC1)c1[nH]nc(-c2ccc(F)cc2)c1-c1ccncc1 the inhibition was 46%.
C[C@@H](NS(=O)(=O)c1ccc(S(=O)(=O)c2ccccc2)s1)c1[nH]nc(-c2ccc(F)cc2)c1-c1ccncc1 showed an inhibition of 88%.
With C[C@@H](NC(=O)N[C@H](C)c1[nH]nc(-c2ccc(F)cc2)c1-c1ccncc1)c1ccccc1 the inhibition was 28%.
In the case of C[C@H](NC(=O)c1ccc(F)c(C(F)(F)F)c1)c1[nH]nc(-c2ccc(F)cc2)c1-c1ccncc1, the inhibition is reported as 27%.
C[C@H](NC(=O)c1cccc(C#N)c1)c1[nH]nc(-c2ccc(F)cc2)c1-c1ccncc1 showed an inhibition of 22%.
In the case of Cc1cccc(Cl)c1S(=O)(=O)N[C@@H](C)c1[nH]nc(-c2ccc(F)cc2)c1-c1ccncc1, the inhibition is reported as 89%.
In the case of O=S(=O)(c1ccc(F)cc1)N1CCC(c2[nH]nc(-c3ccc(F)cc3)c2-c2ccncc2)CC1, the inhibition is reported as 28%.
With O=C(NCc1[nH]nc(-c2ccc(F)cc2)c1-c1ccncc1)c1c(F)ccc(F)c1F the inhibition was 36%.
In the case of COc1ccc(C(=O)NCc2[nH]nc(-c3ccc(F)cc3)c2-c2ccncc2)cc1OC, the inhibition is reported as 22%.
With Cc1ccccc1S(=O)(=O)N[C@H](C)c1[nH]nc(-c2ccc(F)cc2)c1-c1ccncc1 the inhibition was 92%.
With C[C@H](NS(=O)(=O)C[C@]12CC[C@@H](CC1=O)C2(C)C)c1[nH]nc(-c2ccc(F)cc2)c1-c1ccncc1 the inhibition was 60%.
Cc1ccc(S(=O)(=O)N[C@H](C)c2[nH]nc(-c3ccc(F)cc3)c2-c2ccncc2)cc1 was tested, and the inhibition was 39%.
O=S(=O)(c1ccccc1C(F)(F)F)N1CCC(c2[nH]nc(-c3ccc(F)cc3)c2-c2ccncc2)CC1 was tested, and the inhibition was 29%.
COc1ccc(S(=O)(=O)N[C@H](C)c2[nH]nc(-c3ccc(F)cc3)c2-c2ccncc2)cc1OC showed an inhibition of 25%.
C[C@@H](NS(=O)(=O)c1ccccc1Cl)c1[nH]nc(-c2ccc(F)cc2)c1-c1ccncc1 showed an inhibition of 95%.
With O=C(NCc1[nH]nc(-c2ccc(F)cc2)c1-c1ccncc1)c1ccco1 the inhibition was 8%.
CCNC(=O)NCc1[nH]nc(-c2ccc(F)cc2)c1-c1ccncc1 showed an inhibition of 28%.
CCS(=O)(=O)N[C@H](Cc1ccccc1)c1[nH]nc(-c2ccc(F)cc2)c1-c1ccncc1 showed an inhibition of 5%.
C[C@@H](NS(=O)(=O)c1c(Cl)cccc1Cl)c1[nH]nc(-c2ccc(F)cc2)c1-c1ccncc1 showed an inhibition of 75%.
C[C@@H](NC(=O)C1CCC1)c1[nH]nc(-c2ccc(F)cc2)c1-c1ccncc1 showed an inhibition of 19%.
Compound CNC(=O)CC[C@H](NS(=O)(=O)c1ccccc1F)c1[nH]nc(-c2ccc(F)cc2)c1-c1ccncc1 has an inhibition of 1%.
CC(C)NC(=O)N[C@H](C)c1[nH]nc(-c2ccc(F)cc2)c1-c1ccncc1 showed an inhibition of 52%.
For O=C(NCc1[nH]nc(-c2ccc(F)cc2)c1-c1ccncc1)Nc1cc(Cl)cc(Cl)c1, the inhibition was 20%.
C[C@H](NC(=O)c1ccc(F)c(F)c1)c1[nH]nc(-c2ccc(F)cc2)c1-c1ccncc1 gave an inhibition of 52%.
For CCCCOc1ccc(S(=O)(=O)NCCc2[nH]nc(-c3ccc(F)cc3)c2-c2ccncc2)cc1, the inhibition was 29%.
Cc1ccc(S(=O)(=O)N[C@@H](Cc2ccccc2)C(=O)N[C@@H](C)c2[nH]nc(-c3ccc(F)cc3)c2-c2ccncc2)cc1 was tested, and the inhibition was 31%.
C[C@@H](NC(=O)c1ccncc1)c1[nH]nc(-c2ccc(F)cc2)c1-c1ccncc1 showed an inhibition of 36%.
For CC1(C)[C@@H]2CC[C@]1(S(=O)(=O)NCCc1[nH]nc(-c3ccc(F)cc3)c1-c1ccncc1)C(=O)C2, the inhibition was 56%.
In the case of CC(C)c1ccc(S(=O)(=O)N[C@@H](C)c2[nH]nc(-c3ccc(F)cc3)c2-c2ccncc2)cc1, the inhibition is reported as 76%.
In the case of Cc1ccc(S(C)(=O)=O)cc1S(=O)(=O)NCc1[nH]nc(-c2ccc(F)cc2)c1-c1ccncc1, the inhibition is reported as 23%.
With C[C@@H](NS(=O)(=O)c1ccc(-c2ccccc2)cc1)c1[nH]nc(-c2ccc(F)cc2)c1-c1ccncc1 the inhibition was 95%.
C[C@@H](NS(=O)(=O)C[C@@]12CC[C@H](CC1=O)C2(C)C)c1[nH]nc(-c2ccc(F)cc2)c1-c1ccncc1 showed an inhibition of 61%.
Work on CC(=O)NCCNC(=O)NCCCc1[nH]nc(-c2ccc(F)cc2)c1-c1ccncc1 yielded an inhibition of 9%.
Work on O=C(NCc1[nH]nc(-c2ccc(F)cc2)c1-c1ccncc1)c1cccc(Cl)c1Cl yielded an inhibition of 33%.
In the case of C[C@@H](NC(=O)C(C)(C)C)c1[nH]nc(-c2ccc(F)cc2)c1-c1ccncc1, the inhibition is reported as 32%.
With O=C(N[C@H](Cc1ccccc1)c1[nH]nc(-c2ccc(F)cc2)c1-c1ccncc1)c1ccccn1 the inhibition was 8%.
Work on O=S(=O)(NCc1[nH]nc(-c2ccc(F)cc2)c1-c1ccncc1)c1cccc2nonc12 yielded an inhibition of 54%.
O=S(=O)(NCc1[nH]nc(-c2ccc(F)cc2)c1-c1ccncc1)c1cc(S(=O)(=O)c2ccccc2)cs1 gave an inhibition of 58%.
For C[C@H](NS(=O)(=O)c1cccc(Br)c1)c1[nH]nc(-c2ccc(F)cc2)c1-c1ccncc1, the inhibition was 79%.
C[C@H](NS(=O)(=O)c1ccc(Cl)cc1)c1[nH]nc(-c2ccc(F)cc2)c1-c1ccncc1 showed an inhibition of 88%.
Cc1cc(C)c(C(=O)N[C@@H](C)c2[nH]nc(-c3ccc(F)cc3)c2-c2ccncc2)c(C)c1 gave an inhibition of 39%.
CN(C)CCNC(=O)NCCCc1[nH]nc(-c2ccc(F)cc2)c1-c1ccncc1 gave an inhibition of 11%.
Compound CC(C)S(=O)(=O)N[C@H](C)c1[nH]nc(-c2ccc(F)cc2)c1-c1ccncc1 has an inhibition of 52%.
COc1ccc(CC(=O)N[C@H](C)c2[nH]nc(-c3ccc(F)cc3)c2-c2ccncc2)cc1 was tested, and the inhibition was 29%.
C[C@H](NC(=O)[C@H]1CCCN1)c1[nH]nc(-c2ccc(F)cc2)c1-c1ccncc1 showed an inhibition of 20%.
CC(C)=CC(=O)N[C@@H](C)c1[nH]nc(-c2ccc(F)cc2)c1-c1ccncc1 gave an inhibition of 21%.
With O=C(NCc1[nH]nc(-c2ccc(F)cc2)c1-c1ccncc1)c1sc2ccccc2c1Cl the inhibition was 18%.
Work on O=S(=O)(NCc1[nH]nc(-c2ccc(F)cc2)c1-c1ccncc1)c1ccc(-c2ccon2)s1 yielded an inhibition of 89%.
Work on O=S(=O)(NCc1[nH]nc(-c2ccc(F)cc2)c1-c1ccncc1)c1cccc(C(F)(F)F)c1 yielded an inhibition of 75%.
Work on Cc1noc(C)c1S(=O)(=O)NCc1[nH]nc(-c2ccc(F)cc2)c1-c1ccncc1 yielded an inhibition of 1%.
Work on O=C(NCc1[nH]nc(-c2ccc(F)cc2)c1-c1ccncc1)c1c(F)cccc1C(F)(F)F yielded an inhibition of 65%.
For C[C@H](NC(=O)c1cccc(Cl)c1Cl)c1[nH]nc(-c2ccc(F)cc2)c1-c1ccncc1, the inhibition was 17%.
Work on Cc1ccccc1C(=O)N[C@H](C)c1[nH]nc(-c2ccc(F)cc2)c1-c1ccncc1 yielded an inhibition of 42%.
CC(C)NC(=O)NCCc1[nH]nc(-c2ccc(F)cc2)c1-c1ccncc1 showed an inhibition of 54%.
With O=S(=O)(c1cccc(Cl)c1Cl)N1CCC(c2[nH]nc(-c3ccc(F)cc3)c2-c2ccncc2)CC1 the inhibition was 22%.
In the case of Cc1ccccc1C(=O)NCCc1[nH]nc(-c2ccc(F)cc2)c1-c1ccncc1, the inhibition is reported as 9%.
